# Data reported in US20080051429A1, “USE OF 4-AMINO-PIPERIDINES FOR TREATING SLEEP DISORDERS” (priority 2006, published 2008).
# Where a name gives a salt, the structure may show the parent alone. Read-outs that look alike come from different tables or passages of the source.
# Biological target: T1, 5-HT2A receptor (Homo sapiens, UniProt P28223)
# T1 construct: expressed in transfected cells; host or cells: NIH3T3 cells, pSI expression vector
# Test: R-SAT functional receptor assay
# Assay type: cell-based
# Conditions: for Emax: 120 h
# Method: The functional receptor assay, Receptor Selection and Amplification Technology (R-SAT), was used (with minor modifications from that previously described U.S. Pat. No. 5,707,798) to screen compounds for efficacy at the 5-HT2A receptor. Briefly, NIH3T3 cells were grown in 96 well tissue culture plates to 70-80% confluence. Cells were transfected for 12-16 hours with plasmid DNAs using superfect (Qiagen Inc.) as per manufacture's protocols. R-SAT's were generally performed with 50 ng/well of receptor and 20 ng/well of Beta-galactosidase plasmid DNA. All receptor and G-protein constructs used were in the pSI mammalian expression vector (Promega Inc) as described in U.S. Pat. No. 5,707,798. The 5HT2A receptor gene was amplified by nested PCR from brain cDNA using the oligodeoxynucleotides based on the published sequence (see Saltzman et. al. Biochem. Biophys. Res. Comm. 181:1469-78 (1991)). Large-scale transfections, cells were transfected for 12-16 hours, then trypsinized and frozen in DMSO. Frozen cells were later thawed, plated at 10,000-40,000 cells per well of a 96 well plate that contained drug. With both methods, cells were then grown in a humidified atmosphere with 5% ambient CO2 for five days. Media was then removed from the plates and marker gene activity was measured by the addition of the beta-galactosidase substrate ONPG (in PBS with 5% NP-40). The resulting colorimetric reaction was measured in a spectrophotometric plate reader (Titertek Inc.)at […]. All data were analyzed using the computer program XLFit (IDBSm). Efficacy is the percent maximal repression compared to repression by a control compound (ritanserin in the case of 5HT2A). pIC50 is the negative of the log(IC50), where IC50 is the calculated concentration in Molar that produces 50% maximal repression.
# Briefly, the 5-HT2A receptor, and the alpha subunit of the guanine nucleotide binding protein Gq were transiently transfected into NIH3T3 cells and assayed using the functional receptor assay, Receptor Selection and Amplification Technology (R-SAT) essentially as disclosed in U.S. Pat. No. 5,707,798. Each compound was screened at seven serially diluted concentrations in triplicate. Data were analyzed using least squares fit analysis with GraphPad Prism (San Diego, Calif.), and are reported normalized to percent response.
# R-SAT assays (as described in Example 42) were carried out with cells transfected with receptors (listed below) to determine the receptor selectivity profile for compound 26HCH16D. 5HT2A inverse agonist data (IC50 nM; % efficacy) were derived from detailed dose response curves (7 points in triplicate).
# (§1) The functional receptor assay, Receptor Selection and Amplification Technology (R-SAT), was used (with minor modifications from that previously described U.S. Pat. No. 5,707,798) to screen compounds for efficacy at the 5-HT2A receptor. The RSAT assay was conducted as described herein.
# as §1, with “5,707,798, which is incorporated herein by reference in its entirety)” for “5,707,798)”
# [1] = compared to ritanserin, read-out: 5HT2A % inhibition
# [2] = pIC50 (average), inverse agonist
# [3] = percent maximal repression compared to ritanserin
# [4] = read-out: Percent Efficacy, compared to ritanserin
# [5] = Table 3, read-out: pIC50 (converted)
# [6] = inverse agonist, read-out: pIC50 (average) (converted)
# [7] = Table 6, read-out: 5HT2A pIC50 (converted)
# T1 sequence (P28223 whole entry): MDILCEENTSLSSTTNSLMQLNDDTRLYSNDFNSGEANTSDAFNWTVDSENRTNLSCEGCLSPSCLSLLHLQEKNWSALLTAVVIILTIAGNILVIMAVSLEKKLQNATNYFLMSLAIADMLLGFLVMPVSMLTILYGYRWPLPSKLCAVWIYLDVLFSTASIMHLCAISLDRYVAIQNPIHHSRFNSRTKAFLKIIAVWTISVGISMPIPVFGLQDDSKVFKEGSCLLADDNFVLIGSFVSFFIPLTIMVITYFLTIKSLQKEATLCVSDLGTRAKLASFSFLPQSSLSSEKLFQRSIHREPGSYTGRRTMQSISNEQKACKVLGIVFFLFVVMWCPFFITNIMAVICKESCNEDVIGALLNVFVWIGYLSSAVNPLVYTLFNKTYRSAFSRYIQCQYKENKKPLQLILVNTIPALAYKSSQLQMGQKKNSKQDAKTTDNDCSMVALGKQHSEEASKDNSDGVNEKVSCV
compound,measurement,setting,value
"CC(C)COc1ccc(CN2C(=O)OC3(CCN(C)CC3)[C@@H]2Cc2ccc(F)cc2)cc1 (single isomer, unassigned) [Example 78NLS59, 4-(4-fluorobenzyl)-3-(4-isobutoxybenzyl)-8-methyl-1-oxa-3,8-diaza-spiro[4.5]decan-2-one, hydrochloride]",Emax,"read-out: 5HT2A % inhibition, compared to ritanserin",98%
same,enantiomer activity at the 5-HT2A receptor,in words,eutomer
"CC(C)COc1ccc(CN2C(=O)OC3(CCN(C)CC3)C2Cc2ccc(F)cc2)cc1 (single isomer, unassigned) [Example 78NLS62, 4-(4-fluorobenzyl)-3-(4-isobutoxybenzyl)-8-methyl-1-oxa-3,8-diaza-spiro[4.5]decan-2-one, hydrochloride]",Emax,[1],89%
"COc1ccc(CC(=O)N(Cc2ccc(C)cc2)C2CCN(CC3CCCCC3)CC2)cc1 [Example 6HCH79-6, N-(1-(Cyclohexylmethyl)piperidin-4-yl)-N-((4-methylphenyl)methyl)-4-methoxy phenylacetamide]",Percent Efficacy,,83%
"COc1ccc(CC(=O)N(Cc2ccc(C)cc2)C2CCN(Cc3ccccc3)CC2)cc1 [Example 26HCH17, N-((4-Methylphenyl)methyl)-N-(1-(phenylmethyl)piperidin-4-yl)-4-methoxyphenylacetamide hydrochloride]",Emax,read-out: Percent Efficacy,94%
same,IC50,"pIC50, Table 3",5.01 nM
"COc1ccc(CC(=O)N(Cc2ccc(C)cc2)C2CCN(Cc3ccccc3)C2)cc1 (stereo not drawn) [Example 26HCH52, N-((4-Methylphenyl)methyl)-N-(1-(phenylmethyl)pyrrolidin-3-yl)-4-methoxyphenylacetamide]",IC50,[2],49 nM
same,Efficacy (average),[3],98
"Cc1ccc(CN(C(=O)NCc2ccccc2)C2CCNCC2)cc1 [Example 26HCH65, N-((4-Methylphenyl)methyl)-N-(piperidin-4-yl)-N′-phenylmethylcarbamide]",Emax,[4],103%
same,IC50,[5],6.31 nM
"Cc1ccc(CN(C(=O)NCc2ccccc2)C2CCN(Cc3ccccc3Br)CC2)cc1 [Example 26HCH66-03, N-(1-((2-Bromophenyl)methyl)piperidin-4-yl)-N-((4-methylphenyl)methyl)-N′-phenylmethylcarbamide]",IC50,[2],38 nM
same,Efficacy (average),[3],76
"CCc1ccc(CN2CCC(N(Cc3ccc(C)cc3)C(=O)NCc3ccccc3)CC2)s1 [Example 26HCH66-05, N-(1-((5-Ethylthien-2-yl)methyl)piperidin-4-yl)-N-((4-methylphenyl)methyl)-N′-phenylmethylcarbamide]",Emax,read-out: Percent Efficacy,126%
same,IC50,[2],28.2 nM
same,IC50,"pIC50, Table 3",7.94 nM
same,Efficacy (average),[3],109
"COc1ccc(CC(=O)N(Cc2ccc(C)cc2)C2CCNCC2)cc1 [Example 26HCH71B, N-((4-Methylphenyl)methyl)-N-(piperidin-4-yl)-4-methoxyphenylacetamide]",Emax,[4],124%
same,IC50,[5],12.6 nM
"COc1ccc(CC(=O)N(Cc2ccc(C)cc2)C2CCN(CCC(C)(C)C)CC2)cc1 [Example 26HCH79-5, N-(1-(3,3-Dimethylbutyl)piperidin-4-yl)-N-((4-methylphenyl)methyl)-4-methoxyphenylacetamide]",Emax,[4],94%
same,IC50,[5],6.31 nM
"COc1ccc(CC(=O)N(Cc2ccc(C)cc2)C2CCN(Cc3ccccc3O)CC2)cc1 [Example 26HCH79-10, N-(1-((2-Hydroxyphenyl)methyl)piperidin-4-yl)-N-((4-methylphenyl)methyl)-4-methoxyphenylacetamide]",Emax,read-out: Percent Efficacy,102%
same,IC50,"pIC50, Table 3",15.8 nM
"COc1ccc(CC(=O)N(Cc2ccc(F)cc2)C2CCNCC2)cc1 [Example 26HCH80-7, N-((4-Fluorophenyl)methyl)-N-(piperidin-4-yl)-4-methoxyphenylacetamide]",Efficacy (average),,87
same,IC50,[6],20 nM
"COc1ccc(CC(=O)N(Cc2cccc(Br)c2)C2CCNCC2)cc1 [Example 26HCH80-10, N-((3-Bromophenyl)methyl)-N-(piperidin-4-yl)-4-methoxyphenylacetamide]",Efficacy (average),,91
same,IC50,[6],61.7 nM
"CC(C)COc1ccc(CN2C(=O)OC3(CCN(CC4CC4)CC3)C2Cc2ccc(F)cc2)cc1 (stereo not drawn) [Example 38-PH16-HCl, 8-Cyclopropylmethyl-4-(4-fluorobenzyl)-3-(4-isobutoxybenzyl)-1-oxa-3,8-diaza-spiro[4.5]decan-2-one, hydrochloride]",Emax,[1],95%
same,IC50,[7],7.94 nM
"CC(C)COc1ccc(CN2C(=O)OC3(CCN(CCN4CCNC4=O)CC3)C2Cc2ccc(F)cc2)cc1 (stereo not drawn) [Example 38-PH17-HCl, 4-(4-Fluorobenzyl)-3-(4-isobutoxybenzyl)-8-[2-(2-oxo-imidazolidin-1-yl)-ethyl]-1-oxa-3,8-diaza-spiro[4.5]decan-2-one, hydrochloride]",Emax,[1],84%
same,IC50,[7],1.58 nM
"CCN1CCC2(CC1)OC(=O)N(Cc1ccc(OCC(C)C)cc1)C2Cc1ccc(F)cc1 (stereo not drawn) [Example 38-PH20, 4-(4-Fluorobenzyl)-3-(4-isobutoxybenzyl)-8-ethyl-1-oxa-3,8-diaza-spiro[4.5]decan-2-one, hydrochloride]",Emax,[1],100%
same,IC50,[7],0.501 nM
"COc1ccc(CC(=O)N(Cc2ccc(C)cc2)C2CCN(CC3CCCCC3)CC2)cc1 [Example 42ELH45, 2-(4-Methoxyphenyl)-N-(4-methylbenzyl)-N-(1-cyclohexylmethylpiperidin-4-yl)acetamide]",Percent Efficacy,,108%
"COc1ccc(CC(=O)N(Cc2ccc(C)cc2)C2CCN(C3CCCC3)CC2)cc1 [Example 42ELH75, 2-(4-Methoxyphenyl)-N-(4-methylbenzyl)-N-(1-cyclopentylpiperidin-4-yl)acetamide]",Emax,[4],109%
same,IC50,[5],5.01 nM
"COc1ccc(CC(=O)N(Cc2ccc(C)cc2)C2CCN(C(C)C)CC2)cc1 [Example 42ELH79, 2-(4-Methoxyphenyl)-N-(4-methylbenzyl)-N-(1-isopropylpiperidin-4-yl)acetamide]",Emax,[4],110%
same,IC50,[5],3.16 nM
"CCN1CCC(N(Cc2ccc(C)cc2)C(=O)Cc2ccc(OC)cc2)CC1 [Example 42ELH80, 2-(4-Methoxyphenyl)-N-(4-methylbenzyl)-N-(1-ethylpiperidin-4-yl)acetamide]",Emax,[4],122%
same,IC50,[5],3.16 nM
"CCN1CCC(N(Cc2ccc(Cl)cc2)C(=O)Cc2ccc(OC)cc2)CC1 [Example 42ELH85, 2-(4-Methoxyphenyl)-N-(4-chlorbenzyl)-N-(1-ethylpiperidin-4-yl)acetamide]",Percent Efficacy,compared to ritanserin,118%
"COc1ccc(CC(=O)N(Cc2ccc(Cl)cc2)C2CCN(C3CCCC3)CC2)cc1 [Example 42ELH91, 2-(4-Methoxyphenyl)-N-(4-chlorbenzyl)-N-(1-cyclopentylpiperidin-4-yl)acetamide]",Percent Efficacy,compared to ritanserin,108%
"Cc1ccc(CN(C(=O)Cc2ccc(Cl)cc2)C2CCN(C(C)C)CC2)cc1 [Example 47AKU-7, 2-(4-Chlorophenyl)-N-(4-methylbenzyl)-N-(1-isopropylpiperidin-4-yl)-acetamide]",Emax,[4],120%
same,IC50,[5],7.94 nM
"Cc1ccc(CN(C(=O)Cc2ccc(Cl)cc2)C2CCN(C)CC2)cc1 [Example 47AKU-8, 2-(4-Chlorophenyl)-N-(4-methylbenzyl)-N-(1-methylpiperidin-4-yl)-acetamide]",Emax,[4],113%
same,IC50,[5],7.94 nM
"CCN1CCC(N(Cc2ccc(C)cc2)C(=O)Cc2ccc(Cl)cc2)CC1 [Example 47AKU-12, 2-(4-Chlorophenyl)-N-(4-methylbenzyl)-N-(1-ethylpiperidin-4-yl)acetamide]",Emax,[4],112%
same,IC50,[5],7.94 nM
"COc1ccc(CC(=O)N(Cc2ccc(C)cc2)C2CCN(C3CCC3)CC2)cc1 [Example 47AKU-20, 2-(4-Methoxyphenyl)-N-(4-methylbenzyl)-N-(1-cyclobutylpiperidin-4-yl)acetamide]",Emax,[4],120%
same,IC50,[5],10 nM
"COc1ccc(CC(=O)N(Cc2ccc(C)cc2)C2CC3CCC(C2)N3C)cc1 (stereo not drawn) [Example 47AKU-21, 2-(4-Methoxyphenyl)-N-(4-methylbenzyl)-N-(8-methyl-8-aza-bicyclo[3.2.1]oct-3-yl)-acetamide]",Emax,read-out: Percent Efficacy,117%
same,IC50,"pIC50, Table 3",12.6 nM
